Patent US20140370131A1, “Pharmaceutical Composition for Protecting Brain Neurons Comprising Plumula Nelumbinis Extract as Active Ingredient” (priority 2012, published 2014)
One block for each compound: values may come before it.

What was measured:
[1] = Hydrogen peroxide (H2O2) scavenging activity, ABTS-peroxidase system; conditions: pH 5.0, absorbance at 405 nm
Procedure: Hydrogen peroxide (H2O2) scavenging activity was measured in a 2,2-azinobis(3-ethylbenzthiazolin)-6-sulfonicacid (ABTS)-peroxidase system according to the Muller method. Each sample was diluted at varying concentrations. 80 μL of each sample solution, 20 μL of 10 mM H2O2 and 100 μL of phosphate buffer (pH 5.0, 0.1 M) were added to a 96-well plate and reacted at 37° C. for 5 minutes. Then, 30 μL of 1.25 mM ABTS and 30 μL of 1 U/mL peroxidase were added thereto and reacted at 37° C. for 10 minutes, and the absorbance at 405 nm was measured using an enzyme-linked immunosorbent assay (ELISA) reader.

ICR mice = assay: Morris water maze test, scopolamine-induced memory damage; type: in vivo, mouse; conditions: memory acquisition test for 4 days; scopolamine 1 mg/kg i.p.; test samples oral (extract 3, 10, 30, 100, 200 mg/kg)
Procedure: To observe the cell-protecting effect and cognitive function-improving effect of the Plumula nelumbinis extract in vivo using a Morris water maze test, International Cancer Research (ICR) mice having an average weight of about 30 g were purchased and acclimated to the environment of the laboratory for 1 week before use in the experiment. The animal breeding room was maintained at room temperature (ca. 22±2° C.) with 12 h light (200-300 lux)/12 h dark cycles. The animals had free access to food (i.e., 22.1% or more crude protein, 8.0% or less crude fat, 0.6% or more calcium, and 0.4% or more phosphorus; Samyang Corp., Korea) and water. The animals were divided into a control group administered with the same amount of injectable saline without scopolamine (Sigma Aldrich), and a group administered with scopolamine. The group administered with scopolamine was treated with 3, 10, 30, 100 and 200 mg/kg of a 80% methanol extract of Plumula nelumbinis. As a positive control, donepezil was used, which is a cholinesterase inhibitor-based drug approved by the FDA, and is used for the treatment of mild, moderate, or severe Alzheimer's disease and for the alleviation of vascular dementia (i.e., dementia involving cerebrovascular disease).
Each of the test samples and the positive control drug was suspended in injectable sterile water and administered at a unit dose of 10 ml/kg. Scopolamine (1 mg/kg) was administered intraperitoneally each day for 4 days, and the test sample and the positive control drug were administered orally (FIGS. 8A and 8B).
In the water maze test, a learning trial was performed on the day before administration of the extract, and then a memory acquisition test was repeated for 4 days. In the learning trial, each test animal was placed into a water pool ([…]) at one of four release points and allowed to find a platform ([…]) by swimming for 60 seconds. […]
During the memory acquisition test, 1 mg/kg of scopolamine was administered intraperitoneally once a day for 4 days at 60 minutes after administration of the Plumula nelumbinis extract. […] The cognitive ability-improving effect was evaluated by measuring the average swimming time (sec) taken for the test animal to find the platform (sec).
After the learning trial for 1 day, scopolamine was administered to cause damage to cognitive function (memory), and the Moths water maze test was performed to examine the cognitive function-improving effect of the extract. In the memory acquisition test performed over 4 days, the cognitive function-improving effect of the extract was evaluated based on a decrease in each of the average swimming times taken to find the platform and the swimming distance. […]

[2] = DPPH radical scavenging activity; conditions: 30 minutes in the dark, absorbance at 517 nm
Procedure: The test sample was weighed, dissolved in methanol or ethanol, and then filtered through a 0.45-μm filter. The prepared sample was serially diluted. Varying concentrations of 150 μl of each diluted sample were added to a 96-well micro plate, followed by addition of DPPH. The 96-well micro plate was placed in a dark room and allowed to stand for 30 minutes. The absorbance at 517 nm was measured.

Compound: COc1ccc(O)c(C(C)(C)C)c1 [butylated hydroxy anisole (BHA), butylated hydroxy anisole]
hydrogen peroxide (H2O2) scavenging IC50 [1]: 160.58 µg/mL

Compound: COc1cc2c(cc1OC)C(=O)C(CC1CCN(Cc3ccccc3)CC1)C2 (stereo not drawn) [donepezil]
average swimming distance (ICR mice): gradual decreases | average swimming time taken to find the platform (ICR mice): gradual decreases

Compound: CN1[C@@H]2C[C@@H](OC(=O)[C@H](CO)c3ccccc3)C[C@H]1[C@@H]1O[C@@H]12 [scopolamine]
average swimming distance (ICR mice): increased rather than decreased | average swimming time taken to find the platform (ICR mice): increased rather than decreased

DPPH radical scavenging IC50 [2]: 27.73 µg/mL
Compound: O=C1O[C@H]([C@@H](O)CO)C(O)=C1O [vitamin C, ascorbic acid]
